Measurements reported in patent US20230126987A1, “METHODS FOR TREATING CYTOKINE STORM SYNDROME AND RELATED DISEASES” (Generos Biopharma Ltd., priority 2020, published 2023).

Columns and labels:
[1] = system: RSV-infected lung epithelial cells; settings: cited from earlier work
[2] = system: LPS-induced pro-inflammatory cytokines; experiment: LPS-induced acute lung injury model in mice, BALF cytokines by ELISA; settings: airway LPS 1 µg day 1
H5N1 virus = settings: co-administration with zanamivir, compared to antiviral treatment alone; cited from earlier work
H2N2 influenza virus = settings: intraperitoneally on days 4 to 10 after exposure to H2N2 influenza virus, following the onset of illness; cited from earlier work
[3] = system: LPS-induced pro-inflammatory cytokines; experiment: LPS-induced sepsis model in mice, plasma cytokines by ELISA; format: in vivo, Balb/c mice; settings: i.p. 1 hour before LPS 10 mg/kg i.p., DEX 3 mg/kg, Nib1 5 mg/kg, 4 hours after LPS
Protocol: FIGS. 2A and 2B show the cytokine levels of TNFα and IL-6, respectively, in serum as measured by an ELISA kit. […] Whole blood was collected at 4 hours after LPS injection, and the plasma was extracted for ELISA measurement. *indicates P<0.05, **indicates P<0.01, *** indicates P<0.001, and **** indicates P<0.0001.
After 1 hour, all the animals were exposed to lethal dose of LPS (10 mg/kg, 2 mg/mL, i.p., Solarbio L8880). All animals were sacrificed 4 hours after LPS injection for tissue and whole blood collection.
FIGS. 2A and 2B show the cytokine levels of TNFα and IL-6, respectively, in the serum as measured by an ELISA kit. […] Whole blood was collected at 4 hours after LPS injection and plasma was extracted for ELISA measurement. *indicates P<0.05, **indicates P<0.01, *** indicates P<0.001, and **** indicates P<0.0001.

human PBMC = experiment: LPS-induced cytokine release in human PBMC, Luminex multiplex cytokine profiling; format: cell-based; settings: 10 µM 1 h before LPS 100 ng/ml for 4 h; supernatant; relative to DMSO = 100%
[4] = system: LPS-induced pro-inflammatory cytokines; experiment: Repetitive low dose LPS challenge sepsis-like persistent inflammation model in mice, whole blood cell cytokine RT-qPCR; format: in vivo, Balb/c mice; settings: LPS 10 µg/mouse i.p. daily for 4 days, oral DEX 3 mg/kg or Nib1 0.6 mg/kg daily, whole blood cells RT-qPCR
Source text: FIGS. 4A, 4B, and 4C show the cytokine levels of IL-1β, IL-6, and TNFα, respectively, in the whole blood cells as measured by RT-qPCR. […] At the end of experiment, whole blood cells were collected and the total RNA was extracted for RT-qPCR measurement of the cytokine mRNA. *indicates P<0.05, **indicates P<0.01, *** indicates P<0.001.
At the end of the experiment, all animals were sacrificed, and whole blood cells were purified by centrifugation and subjected to standard RT-qPCR detection of IL-6 and TNFα mRNA levels according to the manufacturer’s instructions.

STAT5 = STAT5 inhibition in Jurkat cells, immunoblotting of IFNβ-induced STAT5 phosphorylation (pY694)
[5] = 3 mg/kg po qd 4 days, compared to DMSO-treated group, p<0.05

## CCCCC/C=C/C=C1/C(=O)C=C[C@@H]1C/C=C\CCCC(=O)O [15d-PGJ2]
[1]
  production of IL-1α, IL-6, and TNF cytokines, CXCL8 and CCL5 chemokines, and ICAM-1: decreased production

## CC(=O)OCC(=O)[C@@]1(O)[C@H](C)C[C@H]2[C@@H]3CCC4=CC(=O)C=C[C@]4(C)[C@@]3(F)[C@@H](O)C[C@@]21C [DEX, dexamethasone acetate]
[2]; [5]
  reduction of IL-6 level in bronchoalveolar lavage fluid: about 50%
  reduction of TNFα level in bronchoalveolar lavage fluid: about 50%

## Nc1ccc(O)c(C(=O)O)c1 [Mesalamine]
H5N1 virus
  cellular infiltrate: diminished cellular infiltrate
  survival: improved survival

## Cc1ccc(C)c(OCCCC(C)(C)C(=O)O)c1 [gemfibrozil]
H2N2 influenza virus
  survival: significantly increased survival

## O=c1[nH]c2ccccc2n1C1CCN(CCCC(c2ccc(F)cc2)c2ccc(F)cc2)CC1 [pimozide, 1-[1-[4,4-bis(4-fluorophenyl)butyl]-4-piperidinyl]-1,3-dihydro-2H-benzimidazole-2-one]
[3]; vs DMSO (DEX p<0.0001, Nib1 p<0.01)
  plasma level of TNFα: significantly reduced
[3]; vs DMSO (DEX p<0.01, Nib1 p<0.001)
  plasma level of IL-6: significantly reduced
Human PBMC
  secretion of IL4: significantly reduced
  secretion of IL17A: significantly reduced
  secretion of IL23: significantly reduced
  secretion of IL-1β: significantly reduced
  secretion of IL-6: significantly reduced
[4]; TNFα returned to basal level
  TNFα level: no difference was detected
[4]; vs DMSO (DEX p<0.05, Nib1 p<0.001)
  IL-1β level: significantly reduced
[4]; vs DMSO (both p<0.05)
  IL-6 level: significantly reduced
[2]; 0.6 mg/kg po qd 4 days, vs DMSO, p<0.001
  level of IL-6 in bronchoalveolar lavage fluid: significantly reduced
[2]; 0.6 mg/kg po qd 4 days, vs DMSO, p<0.01
  level of TNFα in bronchoalveolar lavage fluid: significantly reduced
STAT5; Jurkat cells pretreated with 10 µM for 1 hour, then IFNβ 50 ng/ml for 30 min
  reduction of the activation of STAT5 (phosphorylation): more than 50%
STAT5; Jurkat cells treated with 50 µM, IFNβ 50 ng/ml for 30 min
  Phospho-STAT5 signal: completely undetectable
